Data taken from PubChem BioAssay (NCI).
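Test compounds were applied to cells in 96-well plates for 48 hours at 5 doses. GI50: concentration for 50% inhibition of growth. TGI marks complete inhibition of growth.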

test system: NCI-H23 lung; test: NCI-60 cell line screen, 48 h

| Structure (SMILES) | TGI [µM] | GI50 [µM] |
| --- | --- | --- |
| COc1ccc2nc3cc(Cl)ccc3c(Sc3ccccc3[N+](=O)[O-])c2c1 | > 100 |  |
| C/C(CCn1[nH]c(=O)ccc1=O)=N\O | > 100 |  |
| CC1(C)COC(c2ccc(C(F)(F)F)cc2C(O)c2ccc3ccccc3c2)=N1 (stereo not drawn) | > 100 | > 10 |
| COc1ccc(NC(=O)c2cc(OC)cc(OC)c2)cc1 | > 100 |  |
| CC1(C)OC(=O)C(=Cc2ccc(O)cc2)C(=O)O1 | > 100 |  |
| COc1ccc(C2=CSc3cc(Cl)c(C)cc3S(=O)(=O)N2C(C)=O)cc1 | > 100 | 36.4 |
| COc1ccc(/C=C\c2cc(OC)c3c(c2)OCO3)c(O)c1O | 22.3 |  |
| CC[C@@]12CCCN3CC[C@]4(c5cccc(OC)c5N(C(C)=O)[C@@H]4CC1)[C@H]32 | > 100 |  |
| NC1CCC(Nc2nc(NCc3ccc(-c4ccco4)nc3)c3ncn(C4CCCC4)c3n2)CC1 (stereo not drawn) | 0.0953 | 0.0264 |
| CCCCCCCCSC1=CC(=O)c2nc3ccccc3c3ccnc1c23 | > 100 | 58.2 |
| Cc1ccc(-c2nnc(-c3ccc4ccccc4c3)o2)cc1 | > 100 |  |
| COc1ccc(-c2cc(-c3ccc(Nc4nc(Nc5ccccc5)nc(Nc5ccc(Cl)cc5)n4)cc3)nc(N)c2C#N)cc1 | 13.6 | 1.72 |
| O=c1n(CC2CO2)c(=O)n(CC2CO2)n1CC1CO1 (stereo not drawn) | > 100 | 22.7 |
| O=C1C2=C(SCCS2)C(=O)c2ccccc21 | 3.34 |  |
| c1cc2c(cc1NC1=NCCO1)CCC2 | > 10 |  |

test system: OVCAR-3 ovarian; test: NCI-60 cell line screen, 48 h

| Structure (SMILES) | TGI [µM] | GI50 [µM] |
| --- | --- | --- |
| COc1ccc2nc3cc(Cl)ccc3c(Sc3ccccc3[N+](=O)[O-])c2c1 | > 100 |  |
| C/C(CCn1[nH]c(=O)ccc1=O)=N\O | > 100 |  |
| CC1(C)COC(c2ccc(C(F)(F)F)cc2C(O)c2ccc3ccccc3c2)=N1 (stereo not drawn) | > 100 | > 100 |
| COc1ccc(NC(=O)c2cc(OC)cc(OC)c2)cc1 | > 48.6 |  |
| CC1(C)OC(=O)C(=Cc2ccc(O)cc2)C(=O)O1 | > 100 |  |
| COc1ccc(C2=CSc3cc(Cl)c(C)cc3S(=O)(=O)N2C(C)=O)cc1 | 41.4 | 15.8 |
| COc1ccc(/C=C\c2cc(OC)c3c(c2)OCO3)c(O)c1O | 47.4 |  |
| CC[C@@]12CCCN3CC[C@]4(c5cccc(OC)c5N(C(C)=O)[C@@H]4CC1)[C@H]32 | > 100 |  |
| NC1CCC(Nc2nc(NCc3ccc(-c4ccco4)nc3)c3ncn(C4CCCC4)c3n2)CC1 (stereo not drawn) | 0.0778 | 0.0273 |
| CCCCCCCCSC1=CC(=O)c2nc3ccccc3c3ccnc1c23 | > 100 | 19 |
| Cc1ccc(-c2nnc(-c3ccc4ccccc4c3)o2)cc1 | > 100 |  |
| COc1ccc(-c2cc(-c3ccc(Nc4nc(Nc5ccccc5)nc(Nc5ccc(Cl)cc5)n4)cc3)nc(N)c2C#N)cc1 | 1.52 | 0.761 |
| O=c1n(CC2CO2)c(=O)n(CC2CO2)n1CC1CO1 (stereo not drawn) | > 55.5 | 13.7 |
| O=C1C2=C(SCCS2)C(=O)c2ccccc21 | 3.08 |  |
| c1cc2c(cc1NC1=NCCO1)CCC2 | > 10 |  |

test system: SN12C renal; test: NCI-60 cell line screen, 48 h

| Structure (SMILES) | TGI [µM] | GI50 [µM] |
| --- | --- | --- |
| COc1ccc2nc3cc(Cl)ccc3c(Sc3ccccc3[N+](=O)[O-])c2c1 | 75.7 |  |
| C/C(CCn1[nH]c(=O)ccc1=O)=N\O | > 100 |  |
| CC1(C)COC(c2ccc(C(F)(F)F)cc2C(O)c2ccc3ccccc3c2)=N1 (stereo not drawn) | > 100 | > 100 |
| COc1ccc(NC(=O)c2cc(OC)cc(OC)c2)cc1 | > 100 |  |
| CC1(C)OC(=O)C(=Cc2ccc(O)cc2)C(=O)O1 | > 100 |  |
| COc1ccc(C2=CSc3cc(Cl)c(C)cc3S(=O)(=O)N2C(C)=O)cc1 | 41.7 | 13.7 |
| COc1ccc(/C=C\c2cc(OC)c3c(c2)OCO3)c(O)c1O | 41.4 |  |
| CC[C@@]12CCCN3CC[C@]4(c5cccc(OC)c5N(C(C)=O)[C@@H]4CC1)[C@H]32 | > 100 |  |
| NC1CCC(Nc2nc(NCc3ccc(-c4ccco4)nc3)c3ncn(C4CCCC4)c3n2)CC1 (stereo not drawn) | 11.6 | 0.0371 |
| CCCCCCCCSC1=CC(=O)c2nc3ccccc3c3ccnc1c23 | > 100 | 14 |
| Cc1ccc(-c2nnc(-c3ccc4ccccc4c3)o2)cc1 | > 100 |  |
| COc1ccc(-c2cc(-c3ccc(Nc4nc(Nc5ccccc5)nc(Nc5ccc(Cl)cc5)n4)cc3)nc(N)c2C#N)cc1 | > 50 | 2.03 |
| O=c1n(CC2CO2)c(=O)n(CC2CO2)n1CC1CO1 (stereo not drawn) | > 100 | 9.03 |
| O=C1C2=C(SCCS2)C(=O)c2ccccc21 | 3.39 |  |
| c1cc2c(cc1NC1=NCCO1)CCC2 | > 10 |  |

test system: SK-MEL-28 melanoma; test: NCI-60 cell line screen, 48 h

| Structure (SMILES) | TGI [µM] | GI50 [µM] |
| --- | --- | --- |
| COc1ccc2nc3cc(Cl)ccc3c(Sc3ccccc3[N+](=O)[O-])c2c1 | > 100 |  |
| C/C(CCn1[nH]c(=O)ccc1=O)=N\O | > 100 |  |
| CC1(C)COC(c2ccc(C(F)(F)F)cc2C(O)c2ccc3ccccc3c2)=N1 (stereo not drawn) | > 100 | > 100 |
| COc1ccc(NC(=O)c2cc(OC)cc(OC)c2)cc1 | > 100 |  |
| CC1(C)OC(=O)C(=Cc2ccc(O)cc2)C(=O)O1 | > 100 |  |
| COc1ccc(C2=CSc3cc(Cl)c(C)cc3S(=O)(=O)N2C(C)=O)cc1 | > 100 | 56 |
| COc1ccc(/C=C\c2cc(OC)c3c(c2)OCO3)c(O)c1O | 24.1 |  |
| CC[C@@]12CCCN3CC[C@]4(c5cccc(OC)c5N(C(C)=O)[C@@H]4CC1)[C@H]32 | > 100 |  |
| NC1CCC(Nc2nc(NCc3ccc(-c4ccco4)nc3)c3ncn(C4CCCC4)c3n2)CC1 (stereo not drawn) | 0.0686 | 0.0227 |
| CCCCCCCCSC1=CC(=O)c2nc3ccccc3c3ccnc1c23 | > 100 | 42.7 |
| Cc1ccc(-c2nnc(-c3ccc4ccccc4c3)o2)cc1 | > 100 |  |
| COc1ccc(-c2cc(-c3ccc(Nc4nc(Nc5ccccc5)nc(Nc5ccc(Cl)cc5)n4)cc3)nc(N)c2C#N)cc1 | 1.76 | 0.857 |
| O=c1n(CC2CO2)c(=O)n(CC2CO2)n1CC1CO1 (stereo not drawn) | > 100 | > 53.1 |
| O=C1C2=C(SCCS2)C(=O)c2ccccc21 | 3.26 |  |
| c1cc2c(cc1NC1=NCCO1)CCC2 | > 10 |  |

test system: SK-MEL-5 melanoma; test: NCI-60 cell line screen, 48 h

| Structure (SMILES) | TGI [µM] | GI50 [µM] |
| --- | --- | --- |
| COc1ccc2nc3cc(Cl)ccc3c(Sc3ccccc3[N+](=O)[O-])c2c1 | > 100 |  |
| C/C(CCn1[nH]c(=O)ccc1=O)=N\O | > 100 |  |
| CC1(C)COC(c2ccc(C(F)(F)F)cc2C(O)c2ccc3ccccc3c2)=N1 (stereo not drawn) | > 100 | > 100 |
| COc1ccc(NC(=O)c2cc(OC)cc(OC)c2)cc1 | > 100 |  |
| CC1(C)OC(=O)C(=Cc2ccc(O)cc2)C(=O)O1 | > 100 |  |
| COc1ccc(C2=CSc3cc(Cl)c(C)cc3S(=O)(=O)N2C(C)=O)cc1 | 48.5 | 19.9 |
| COc1ccc(/C=C\c2cc(OC)c3c(c2)OCO3)c(O)c1O | 6.32 |  |
| CC[C@@]12CCCN3CC[C@]4(c5cccc(OC)c5N(C(C)=O)[C@@H]4CC1)[C@H]32 | > 100 |  |
| NC1CCC(Nc2nc(NCc3ccc(-c4ccco4)nc3)c3ncn(C4CCCC4)c3n2)CC1 (stereo not drawn) | 1.02 | 0.0913 |
| CCCCCCCCSC1=CC(=O)c2nc3ccccc3c3ccnc1c23 | > 100 | 98.8 |
| Cc1ccc(-c2nnc(-c3ccc4ccccc4c3)o2)cc1 | > 100 |  |
| COc1ccc(-c2cc(-c3ccc(Nc4nc(Nc5ccccc5)nc(Nc5ccc(Cl)cc5)n4)cc3)nc(N)c2C#N)cc1 | 3.03 | 1.18 |
| O=c1n(CC2CO2)c(=O)n(CC2CO2)n1CC1CO1 (stereo not drawn) | > 79.9 | 14.7 |
